Literature values as cited in patent US20240226016A1, “STARCH BASED PRINTABLE MATERIALS” (ROQUETTE FRERES, priority 2021, published 2024).

Cn1c(=O)c2c(ncn2CC(O)CO)n(C)c1=O (stereo not shown) [diprophylline]
solubility in water (class): freely soluble in water
